Experimental data taken from patent publication US4613618A, “Method for treating disorders of lipid metabolism using benzene sulfonamides” (Choay S.A., priority 1981, dated 1986).
Read-outs that look alike come from different tables or passages of the source.

Experiments:
[1] = tested on: hyperlipidemia caused by the administration of TRITON; assay: Triton test: lipid regulating activity in hyperlipidemia caused by TRITON W. R.; type: in vivo, WISTAR male rats; conditions: Rattus norvegicus, po, 250 mg/kg orally, 6 hours and/or 24 hours
Experimental: In a first series of experiments, products were tested on a hyperlipidemia caused by the administration of TRITON according to the following procedure.
The tests were carried out on groups of five WISTAR male rats whose weight varied from 150 to 175 g.
The tested products were administered, orally in the form of a 3% aqueous solution of tragacanth gum in the ratio of 1 ml per 100 g of body weight, in an amount corresponding to 250 mg/kg.
To carry out these tests, a hyperlipidemia was caused in the animals, by means of the product marketed by the ROHM and HAAS Company under the name TRITON W. R.
On this hyperlipidemia the effects obtained by the administration of the active substances according to the invention, are observed.
The tests were carried out as follows:
the rats were fasted for 18 hours, then the TRITON W. R. was administered intravenously in 10% aqueous solution in the proportion of 200 mg/kg;
simultaneously 250 mg/kg of the product under test was administered orally;
6 hours and/or 24 hours later, blood assays were carried out conventionally.
to the total cholesterol, […]

atherosclerosis lesions = assay: Atherosclerosis inducing diet: macroscopic exams (affected animals); type: in vivo, Wistar female rats
Experimental: (§1) In a second experimental series, tha activity of certain products according to the invention were tested on animals which had received an atherosclerosis inducing diet for a long period.
(§2) The test was carried out on Wistar female rats, of weight about 160-180 g.
(§3) The animals received food coming from the National Nutrition plant of Villemoisson-sur-Orge, France, and denoted by the reference UAR AO3, enriched in cholesterol (0.5%) and in cholic acid (0.5%).
(§4) After 15 days of the atherosclerosis inducing diet and whilst maintaining the animals on an atherosclerosis inducing diet, they were given orally for 4 days 250.000 iu/kg of vitamine D2 marketed under the name Sterogyl 25H, in solution in olive oil.
(§5) Then the products under study were administered for 4 weeks, from the end of the administration of the lesion-inducing agent.
At the end of the study, all the animals still alive were sacrificed, and various organs were removed, particularly the aorta, for histological study of the latter. Two criteria were examined: the number of atherosclerosis areas and the severity of the lesions.
(§6) Then the pecentage reduction with respect to the diet controls and the score were calculated, that is to say the ratio of the intensity of the activity of the product tested with respect to that of the activity of clofibrate, reckoned as 1.
Table X gives the results of macroscopic examinations:
(a) in % decrease in animals afflicted with lesions;
(b) as score with respect to the reference clofibrate, of which the score was counted as 1.

[2] = tested on: atherosclerosis inducing diet (cholesterol, cholic acid, vitamine D2); assay: Atherosclerosis inducing diet: biochemical exams; type: in vivo, Wistar female rats; set-up: CHOLESTEROL T, % reduction with respect to the control diet / CHOLESTEROL HDL, % with respect to the control diet / CHOLESTEROL LDL, % reduction with respect to the control diet / TRIGLYCERIDES, % reduction with respect to the control diet: concentration or dose not given beside the values
Experimental: as §1, §2, §3, §4, §5
At the end of the study, biochemical examinations were carried out on all the animals [total cholesterol, high density lipoprotein (HDL) and cholesterol low density lipoprotein (LDL), and triglycerides].
as §6
Table IX gives the detailed results of the biochemical examination:
(a) in % reduction with respect to the control die;
(b) as score, with respect to the reference product, clofibrate, the latter being counted as 1.

[3] = read-out: Total cholesterol, % of decrease with respect to Triton control
[4] = read-out: Total lipids, % of decrease with respect to Triton control
[5] = read-out: Triglycerides, % of decrease with respect to Triton control

SMILES	change in vivo at 250 mg/kg [1, 3] [%]	change in vivo at 250 mg/kg [1, 4] [%]	change in vivo at 250 mg/kg [1, 5] [%]	further results
CCOC(=O)CCCNS(=O)(=O)c1ccc(N)cc1 [compound 624]	-18	–	–	–
COc1cc([N+](=O)[O-])c(Cl)cc1S(=O)(=O)NCCCCCCCC(=O)O [compound 504]	-45	–	–	–
Nc1cccc(S(=O)(=O)NCCCCCCCCCCC(=O)O)c1 [compound 695]	-24	-20	-27	–
CCOC(=O)CCCCCNS(=O)(=O)c1ccc(N)cc1 [compound 609]	-40	–	-2	–
CCOC(=O)CCCCCCCNS(=O)(=O)c1cc(Cl)c(N)cc1OC [compound 730]	–	–	-10	–
CCOC(=O)CCCCCNS(=O)(=O)c1cccc(N)c1 [compound 682]	–	-22	-34	–
O=C(O)CCCCCCCCCCNS(=O)(=O)c1cccs1 [compound 823]	-41	-25	–	–
O=C(O)CCCCCNS(=O)(=O)c1ccc([N+](=O)[O-])cc1 [compound 562]	–	-6	–	–
COc1cc([N+](=O)[O-])ccc1S(=O)(=O)NCCCC(=O)O [compound 660]	-42	-36	-90	–
CCOC(=O)CCCCCCCCCCNS(=O)(=O)c1cc(Cl)c(N)cc1OC [compound 503]	–	-26	-18	–
COc1cc([N+](=O)[O-])c(Cl)cc1S(=O)(=O)NCCCCCCCCCCC(=O)O [compound 501]	-24	-17	-18	–
Nc1ccc(S(=O)(=O)NCCCCCCCCCCC(=O)O)cc1 [compound 667]	-7	-45	–	–
Nc1cccc(S(=O)(=O)NCCCC(=O)O)c1 [compound 680]	–	-46	-16	–
CCOC(=O)CCCCCCCCCCNS(=O)(=O)c1ccc(N)cc1 [compound 626]	-18	–	–	–
CCOC(=O)CCCCCNS(=O)(=O)c1cccc([N+](=O)[O-])c1 [compound 666]	–	-20	–	–
O=C(O)CCCNS(=O)(=O)c1cccnc1 [compound 786]	-36	-24	-17	% decrease in animals afflicted with lesions (atherosclerosis lesions): 6,67%; Score with respect to the reference clofibrate (animals afflicted with lesions) (atherosclerosis lesions; clofibrate counted as 1): 0,37; AFFECTED ANIMALS % (atherosclerosis lesions; macroscopic exams, TEM-diet 100): 93,33%; TRIGLYCERIDES, % reduction with respect to the control diet ([2]; 4 weeks administration): -17,24%; CHOLESTEROL HDL, % with respect to the control diet ([2]; HDL, 4 weeks administration): -20,83%; CHOLESTEROL LDL, % reduction with respect to the control diet ([2]; LDL, 4 weeks administration): -57,07%; CHOLESTEROL LDL, Score with respect to clofibrate ([2]; clofibrate counted as 1): 1,03; CHOLESTEROL T, Score with respect to clofibrate ([2]; clofibrate counted as 1): 1,11; TRIGLYCERIDES, Score with respect to clofibrate ([2]; clofibrate counted as 1): 0,71; CHOLESTEROL T, % reduction with respect to the control diet ([2]; total cholesterol, 4 weeks administration): -54,22%
COc1cc(N)ccc1S(=O)(=O)NCCCCCCCCCCC(=O)O [compound 668]	-27	-20	-29	–
CCOC(=O)CCCCCNS(=O)(=O)c1ccc([N+](=O)[O-])cc1 [compound 563]	-8	-27	–	–
O=C(O)CCCCCCCCCCNS(=O)(=O)c1cccc([N+](=O)[O-])c1 [compound 697]	-46	-35	-50	–

SMILES	change in vivo at 250 mg/kg [1, 3] [%]	change in vivo at 250 mg/kg [1, 4] [%]	change in vivo at 250 mg/kg [1, 5] [%]	further results
CCOC(=O)CCCNS(=O)(=O)c1ccc([N+](=O)[O-])cc1OC [compound 625]	–	–	-5	–
O=C(O)CCCCCCCCCCNS(=O)(=O)c1ccc([N+](=O)[O-])cc1 [compound 564]	–	-37	-15	–
COc1cc([N+](=O)[O-])ccc1S(=O)(=O)NCCCCCCCCCCC(=O)O [compound 661]	-37	–	-86	–
CCOC(=O)CCCNS(=O)(=O)c1cc(Cl)c(N)cc1OC [compound 484]	–	-41	–	–
CCOC(=O)CCCCCNS(=O)(=O)c1cc(Cl)c(N)cc1OC [compound 469]	-3	-30	-28	–
CCOC(=O)CCCCCCCNS(=O)(=O)c1cc(Cl)c([N+](=O)[O-])cc1OC [compound 508]	-8	-17	–	–
CCOC(=O)CCCCCCCCCCNS(=O)(=O)c1ccc([N+](=O)[O-])cc1OC [compound 611]	-29	-15	–	–
CCOC(=O)CCCCCNS(=O)(=O)c1ccc([N+](=O)[O-])cc1OC [compound 608]	-19	-15	–	–
O=C(O)CCCCCNS(=O)(=O)c1cccs1 [compound 800]	-13	-33	-5	–
CCOC(=O)CCCCCCCCCCNS(=O)(=O)c1ccc([N+](=O)[O-])cc1 [compound 610]	-20	-2	–	–
COc1cc([N+](=O)[O-])ccc1S(=O)(=O)NCCCCCC(=O)O [compound 696, ε(4-nitro 2-methoxybenzenesulfonamido)caproic acid]	-56	-46	-59	–
CCOC(=O)CCCCCCCCCCNS(=O)(=O)c1ccc(Cl)cc1 [compound 728]	–	-32	-53	–
CCOC(=O)CCCCCCCCCCNS(=O)(=O)c1cccc(N)c1 [compound 683]	–	-19	-52	–
CCOC(=O)CCCNS(=O)(=O)c1ccc(N)cc1OC [compound 656]	-14	-3	-29	–
CCOC(=O)CCCCCNS(=O)(=O)c1cc(Cl)c([N+](=O)[O-])cc1OC [compound 380, ethyl ester of (5-chloro 4-nitro 2-methoxy benzenesulfonamide)caproic acid]	-19	-31	-86	–
CCOC(=O)CCCCCNS(=O)(=O)c1ccc(N)cc1OC [compound 612]	-1	-48	-13	–
CCOC(=O)CCCNS(=O)(=O)c1cc(Cl)c([N+](=O)[O-])cc1OC [compound 486]	–	-66	-21	–
COc1cc(N)ccc1S(=O)(=O)NCCCCCC(=O)O [compound 694, ε(4-amino 2-methoxybenzenesulfonamido)caproic acid]	-32	-31	-65	–
